In patent US8652804B2, “Transcription factor-based biosensors for detecting dicarboxylic acids” (priority 2011, dated 2014):

Legend:
[1] = system: E. coli DcuS-DcuR two-component system; conditions: plasmids S5 (PDcuB#21) or S6 (PDcuB#22), 25 μg/ml tetracycline
Description: (§1) E. coli strain K12 was transformed with plasmids S4, S5, or S6 and individual colonies isolated from LB agar plates (Cb^50). Colonies were grown in 25 ml LB broth (Cb^50) until reaching an optical density at 600 nm (OD600) of approximately 0.50, at which point cell stocks were prepared and stored at −80° C.; cell stocks comprised 0.5 ml cell culture and 0.5 ml of 50% v/v glycerol in water.
(§2) Biosensor experiments were performed with butanedioic acid. An aliquot of biosensor cell stock was thawed and used to inoculate 50 ml of LB medium (Cb^50) in a 250 ml, baffled Erlenmeyer flask. […] Plates were grown at 30° C. on an orbital titer plate shaker (Lab Line Instruments). Following 12 hours incubation, 200 μl samples were taken for OD600 measurement (Tecan Ultra).

[2] = biological target: PcaR transcription factor (Pseudomonas putida, UniProt Q52154); conditions: for biosensor response (OD600 increase / tetracycline resistance) in words: plasmids S3/S2, 25 μg/ml tetracycline, 12 hours growth; for linear response range: plasmids S3/S2, E. coli K12, tetracycline medium, 12 hours, exogenously added dicarboxylic acid; for dynamic range (maximum difference in OD600 between fully induced samples and samples without dicarboxylic acid), ranking in words: plasmids S3/S2, compared among the four dicarboxylic acids
Description: The X-axis is the concentration of exogenous dicarboxylic acid supplemented to the growth medium; the Y-axis is the cell culture density (OD600) after 12 hours growth in medium supplemented with 25 μg/ml tetracycline. E. coli strain “PcaR (+)” comprises plasmids S3/S2 and produces the tetracycline resistance protein upon exogenous addition of dicarboxylic acids. E. coli strain “PcaR (−)” comprises plasmids S1/S2 and produces a negative control protein, PcaI, upon exogenous addition of the indicated dicarboxylic acids.
Three plasmids were used to characterize biosensor response to exogenously added butanedioic acid, pentanedioic acid, hexanedioic acid and heptanedioic acid. The constructed plasmids employ the beta-keto hexanedioic acid and hexanedioic responsive transcription factor, PcaR, and the PcaR-responsive promoters, PPcaR (SEQ ID NO: 16) and PPcaIJ (SEQ ID NO:17), from Pseudomonas putida. Plasmid 51 harbors the P. putida gene pcaI under transcriptional control of it native PPcaIJ promoter on an E. coli vector backbone with ampicillin resistance marker and ColE1 origin of replication. Plasmid S3 harbors the tetA tetracycline resistance gene under control of the PcaIJ promoter on an E. coli vector backbone with ampicillin resistance marker and ColE1 origin of replication. Plasmid S2 harbors the pcaR transcription factor gene under control of its native PPcaR promoter on an E. coli vector backbone comprising a chloramphenicol resistance marker and pSC101 origin of replication.
E. coli strain K12 was co-transformed with either plasmids S1/S2 or S3/S2 and individual colonies isolated from LB agar plates (Cb^50, Cm^50). Colonies were grown in 25 ml LB broth (Cb^50, Cm^50) until reaching an optical density at 600 nm (OD600) of approximately 0.50, at which point cell stocks were prepared and stored at −80° C.; cell stocks were comprised of 0.5 ml cell culture and 0.5 ml of a 50% v/v glycerol solution.
Biosensor experiments were performed with butanedioic acid, pentanedioic acid, hexanedioic acid, and heptanedioic acid. An aliquot of biosensor cell stock was thawed and used to inoculate 50 ml of LB medium (Cb^50, Cm^50) in a 250 ml, baffled Erlenmeyer flask. Cultures were incubated for 2 hours at 37° C.; subsequently, 0.6 ml biosensor culture was added to 48-well plates prepared with 2.3 ml LB medium (Cb^50, Cm^50) supplemented with tetracycline and dicarboxylic acid at the desired concentration (n=4). Plates were than grown at 30° C. on an orbital titer plate shaker (Lab Line Instruments). Following 12 hours incubation, 200 μl samples were taken for OD600 measurement (Tecan Ultra).

[3] = system: E. coli DcuS-DcuR two-component system; conditions: plasmid S4 (PDctA-tetA), E. coli K12, 25 μg/ml tetracycline, 12 hours, exogenously added acid
Description: This example describes a dicarboxylic acid-responsive two-component system of the invention comprised of the E. coli DcuS-DcuR proteins expressed in a wild type E. coli K12 host.
as §1, §2

Chain of PcaR transcription factor (Q52154 whole entry L6P/V7A/D9E/P10S/V11A/P15S/S20A/A21P/M23L/S96T/G197D/H210N/P212A): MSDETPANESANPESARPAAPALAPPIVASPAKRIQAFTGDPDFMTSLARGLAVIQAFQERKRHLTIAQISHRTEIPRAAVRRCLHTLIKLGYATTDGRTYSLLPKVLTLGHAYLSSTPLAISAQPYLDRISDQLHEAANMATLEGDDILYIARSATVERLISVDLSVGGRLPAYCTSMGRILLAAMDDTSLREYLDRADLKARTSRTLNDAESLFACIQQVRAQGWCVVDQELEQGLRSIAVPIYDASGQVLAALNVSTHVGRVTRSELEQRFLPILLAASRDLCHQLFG

Row | Compound | growth of biosensor cultures versus acid concentration, in words [1] | biosensor response (OD600 increase / tetracycline resistance) in words [2] | linear response range [2] | dynamic range of biosensor response [3] | dynamic range (maximum difference in OD600 between fully induced samples and samples without dicarboxylic acid), ranking in words [2]
1 | O=C(O)CCC(=O)O [butanedioic acid] | grew under all butanedioic acid concentrations tested | dicarboxylic acid-dependent increases in tetracycline resistance | 1.5 to 4 mM | over 1.2 OD600 units | 
2 | O=C(O)CCCCCC(=O)O [heptanedioic acid] |  | dicarboxylic acid-dependent increases in tetracycline resistance | 0.5 to 6 mM |  | highest dynamic range
3 | O=C(O)CCCCC(=O)O [hexanedioic acid] |  | dicarboxylic acid-dependent increases in tetracycline resistance | 0.25 to 6 mM |  | highest dynamic range
4 | O=C(O)CCCC(=O)O [pentanedioic acid] |  | dicarboxylic acid-dependent increases in tetracycline resistance | 1 to 2.5 mM |  | 
